Values quoted from earlier work in US9468626B2, “Melatonin-based formulations for parenteral administration” (CHIESI FARMACEUTICI S.p.A., priority 2014, dated 2016).

Legend:
[1] = in vivo
[2] = exposed to light or oxygen
newborn piglets = settings: intravenously, 5 mg/kg/h

COc1ccc2[nH]cc(CCNC(C)=O)c2c1 [melatonin, N-[2-(5-Methoxy-1H-indol-3-yl)ethyl]acetamide]
oral bioavailability [1]: low and very variable
solubility in water: poorly soluble in water
stability in aqueous solution [2]: not stable when exposed to light or oxygen
hypothermic neuroprotection (newborn piglets): increases hypothermic neuroprotection
